Literature values as cited in patent US10927398B2, “Compositions for CYP450 phenotyping using saliva samples” (Concordia University, Inc., priority 2015, dated 2021).
Where two headings read alike, the source gives them in different places.

Legend:
[1] = cited from earlier work
[2] = cited from earlier work; remark: listed apart in the source
plasma protein = settings: cited from earlier work
[3] = Table of Exemplary Drugs, CYP2D6
[4] = Table of Exemplary Drugs, CYP2C9
[5] = Table of Exemplary Drugs, CYP2C19
[6] = Table of Exemplary Drugs, CYP3A4

Row | SMILES | ORAL BIOAVAILABILITY [1, 6] | HALF-LIFE [2, 6] | PLASMA PROTEIN BINDING (plasma protein; [6]) | further results
1 | CN1CCN2c3ccccc3Cc3ccccc3C2C1 (stereo not drawn) [Mianserin] | – | – | – | ORAL BIOAVAILABILITY [1, 3]: 20-30%; HALF-LIFE [2, 3]: 1.4 h; PLASMA PROTEIN BINDING (plasma protein; [3]): 90%
2 | CC(C(=O)O)c1ccc(C(=O)c2cccs2)cc1 (stereo not drawn) [Suprofen] | – | – | – | ORAL BIOAVAILABILITY [1, 4]: 92%; HALF-LIFE [2, 4]: 2 to 4 h; PLASMA PROTEIN BINDING (plasma protein; [4]): >99%
3 | CN(C/C=C/C#CC(C)(C)C)Cc1cccc2ccccc12 [Terbinafine] | – | – | – | ORAL BIOAVAILABILITY [1, 4]: 40%; HALF-LIFE [2, 4]: 22 to 26 h; PLASMA PROTEIN BINDING (plasma protein; [4]): >99%
4 | C[C@]12CC[C@H]3[C@@H](CCC4=CC(=O)CC[C@@]43C)[C@@H]1CC[C@@H]2O [Testosterone] | – | – | – | ORAL BIOAVAILABILITY ([1]; in vivo, po): Varies; HALF-LIFE (hrs) ([2]; in vivo): varies; PLASMA PROTEIN BINDING (plasma protein; plasma): 98%
5 | CNC1(c2ccccc2Cl)CCCCC1=O (stereo not drawn) [Ketamine] | – | – | – | ORAL BIOAVAILABILITY ([1]; in vivo): IM: 90-93%, PO: 16%; HALF-LIFE ([2]; in vivo): 2 to 3 h; PLASMA PROTEIN BINDING (plasma protein; plasma): 47%
6 | O=C(NCCN1CCOCC1)c1ccc(Cl)cc1 [Moclobemide] | – | – | – | ORAL BIOAVAILABILITY [1, 5]: 55-95%; HALF-LIFE [2, 5]: 2 h; PLASMA PROTEIN BINDING (plasma protein; [5]): 50%
7 | OCCN1CCN(CC/C=C2/c3ccccc3Sc3ccc(Cl)cc32)CC1 [Zuclopenthixol] | – | – | – | ORAL BIOAVAILABILITY [1, 3]: 49%; HALF-LIFE [2, 3]: 20 h; PLASMA PROTEIN BINDING (plasma protein; [3]): 98%
8 | CCc1nn(CCCN2CCN(c3cccc(Cl)c3)CC2)c(=O)n1CCOc1ccccc1 [Nefazodone] | 20% | 2 to 4 h | >99% | –
9 | CCC1(c2ccccc2)C(=O)NCNC1=O [Primidone] | – | – | – | ORAL BIOAVAILABILITY [1, 5]: 90-100%; HALF-LIFE [2, 5]: 3.3 to 7 h; PLASMA PROTEIN BINDING (plasma protein; [5]): 20-30% ^
10 | Cc1ccsc1C(=CCCN1CCC[C@@H](C(=O)O)C1)c1sccc1C [Tiagabine (Gabitril), Tiagabine] | 90% | 7 to 9 h | 96% | –
11 | CCS(=O)(=O)CCn1c([N+](=O)[O-])cnc1C [Tinidazole (Tindamax), Tinidazole] | 100% | 11.1 to 14.7 h | 12% | –
12 | COC(=O)[C@H](c1ccccc1Cl)N1CCc2sccc2C1 [Clopidogrel] | >50% | 6 h | 94-98% ^ | ORAL BIOAVAILABILITY [1, 5]: >50%; PLASMA PROTEIN BINDING (plasma protein; [5]): 98%
13 | CC(C)(C)c1ccc(C(=O)CCCN2CCC(OC(c3ccccc3)c3ccccc3)CC2)cc1 [Ebastine (Kestine), Ebastine] | “High” | 24.8 h | 98% | –
14 | C=CC[C@@H]1/C=C(\C)C[C@H](C)C[C@H](OC)[C@H]2O[C@@](O)(C(=O)C(=O)N3CCCC[C@H]3C(=O)O[C@H](/C(C)=C/[C@@H]3CC[C@@H](O)[C@H](OC)C3)[C@H](C)[C@@H](O)CC1=O)[C@H](C)C[C@@H]2OC [Tacrolimus (Prograf), Tacrolimus] | 17-31% | 8.7 to 37.9 h | 99% | –
15 | CC(C)Nc1cccnc1N1CCN(C(=O)c2cc3cc(NS(C)(=O)=O)ccc3[nH]2)CC1 [Delavirdine (Rescriptor), Delavirdine] | 85% | 5.8 h | 98% | –
16 | COc1ccccc1OCC(O)CN1CCN(CC(=O)Nc2c(C)cccc2C)CC1 (stereo not drawn) [Ranulazine (Ranexa), Ranulazine] | 55% | 7 to 8.9 h | 62% | –
17 | COC(=O)C1=C(C)NC(C)=C(C(=O)OC(C)C)C1c1cccc2nonc12 (stereo not drawn) [Isradipine (DynaCirc), Isradipine] | – | 8 h | 95% | ORAL BIOAVAILABILITY ([1]; cell marked CR, Table of Exemplary Drugs, CYP3A4): CR: 15-24%; ORAL BIOAVAILABILITY ([1]; cell marked IR, Table of Exemplary Drugs, CYP3A4): IR 90-95%;
18 | CCC[C@@]1(CCc2ccccc2)CC(O)=C([C@H](CC)c2cccc(NS(=O)(=O)c3ccc(C(F)(F)F)cn3)c2)C(=O)O1 [Tipranavir (Aptivus), Tipranavir] | 30?% | 5.5 to 6 h | 99.9%^ | –
19 | Fc1ccccc1C1=NCC(=S)N(CC(F)(F)F)c2ccc(Cl)cc21 [Quazepam (Doral), Quazepam] | 29-35% | 25 to 41 h | >95% | –
20 | COc1ccc2nc([S@@+]([O-])Cc3ncc(C)c(OC)c3C)[nH]c2c1 [Esomeprazole] | – | – | – | ORAL BIOAVAILABILITY [1, 5]: 90%; HALF-LIFE [2, 5]: 1.5 h; PLASMA PROTEIN BINDING (plasma protein; [5]): 97%
21 | OC(c1cc(C(F)(F)F)nc2c(C(F)(F)F)cccc12)C1CCCCN1 (stereo not drawn) [Mefloquine (Lariam), Mefloquine] | 85% | 3 weeks | 98% | –
